According to patent US20220296573A1, “NOVEL COMPOUNDS AND PHARMACEUTICAL COMPOSITIONS THEREOF FOR THE TREATMENT OF INFLAMMATORY DISORDERS” (Galapagos NV, priority 2019, published 2022):

What was measured:
Human Hepatocyte = experiment: Metabolic stability in human hepatocytes; type: in vitro ADME; conditions: human cryopreserved hepatocytes, 1 μM
Experimental: (§1) The aim of this assay is to determine the metabolic stability of the compound in hepatocytes (cryopreserved) of different species. Low hepatocyte stability may result in the formation of unwanted metabolites, high clearance, and therefore is not desirable.
(§2) A 10 mM stock solution of test compound in DMSO was first diluted in DMSO to 3 mM, and then in modified Krebs-Henseleit buffer (Sigma, K3753) to 5 μM. This compound dilution was added to a suspension of pooled cryopreserved hepatocytes (BioreclamationIVT) at 37° C. under gentle shaking.
(§3) Final reaction conditions were: 1 μM of test compound, 0.03% DMSO, 0.5 million viable hepatocytes/mL, and 75 μL incubation volume.
(§4) Testosterone (1 μM) and 7-hydroxycoumarin (1 μM) were used, respectively as phase I and phase II metabolic reaction controls.
(§5) After 0, 10, 20, 45, 90, 120 and 180 min of incubation, the reaction was terminated with 225 μL of MeCN:MeOH (2:1) containing 100 ng/mL of diclofenac as analytical internal standard. Samples were mixed, centrifuged and the supernatant analyzed by LC-MS/MS.
(§6) The instrument responses (ratios of test compound and internal standard peak areas) were referenced to the zero time point samples (considered as 100%) in order to determine the percentage of compound remaining.
(§7) Plots of percentage compound remaining were used to determine the intrinsic clearance in the hepatocyte incubations using the following equations:
(§8) Scaled Clint [L/h/kg]=Clint [μL/min/10^6 cells]*#(10) cells/g liver*60*(1/10^6) Scaled Clint unbound [L/h/kg]=Clint [L/h/kg]/Fu,inc where: fu,inc equals hepatocyte binding, derived from microsomal binding (fu,mic) by following equation: […]

human IRAK-4 = molecular target: T1, human IRAK-4 (Homo sapiens, UniProt Q9NWZ3); experiment: Phosphorylation IC50 determination for human IRAK-4 (ADP-Glo Kinase Assay); conditions: human IRAK-4, substrate RIP140, Km ATP; read-out: IRAK4 ADPglo biochemical assay IC50
T1 construct: purchased Carna Biosciences 09 145
T1 sequence (Q9NWZ3 1-460): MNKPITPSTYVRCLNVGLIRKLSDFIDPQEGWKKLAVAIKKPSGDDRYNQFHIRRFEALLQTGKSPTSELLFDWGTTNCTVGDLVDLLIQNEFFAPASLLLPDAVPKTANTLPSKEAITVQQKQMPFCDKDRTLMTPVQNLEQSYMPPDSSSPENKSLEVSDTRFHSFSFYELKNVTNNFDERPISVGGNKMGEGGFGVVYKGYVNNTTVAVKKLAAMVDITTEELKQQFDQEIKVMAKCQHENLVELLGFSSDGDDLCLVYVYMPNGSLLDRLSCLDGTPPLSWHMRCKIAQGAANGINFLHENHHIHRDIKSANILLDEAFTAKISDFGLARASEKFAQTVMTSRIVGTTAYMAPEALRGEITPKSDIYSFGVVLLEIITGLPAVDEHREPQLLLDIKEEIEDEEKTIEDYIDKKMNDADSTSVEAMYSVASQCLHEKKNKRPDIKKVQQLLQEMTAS
Experimental: The phosphorylation of the substrate RIP140 (SEQ ID1) by IRAK4 at Km ATP was detected with the ADP-Glo Kinase Assay (Promega, Cat #V9103), a luminescent kinase assay which measures the ADP formed from a kinase reaction. (Zegzouti et al. 2009) In a second step the kinase reaction was terminated and all the remaining ATP was depleted. In a final step the ADP was converted into ATP and this newly synthesized ATP was measured by using a luciferase/luciferin reaction with a luminescent reader. The luminescent signal positively correlated with kinase activity, in particular kinase inhibition giving a decrease of the luminescent signal.
For the semi-automated assay, the positive control (100% inhibition) was prepared by diluting 10 mM staurosporine stock mixture (20 μL) in water (3.8 mL) and DMSO (180 μL), thus resulting in a […] staurosporine solution at 1% DMSO (final concentration after further dilution in the kinase reaction).
For the automated assay, no pre-dilution of the 10 mM staurosporine stock was made. 10 mM staurosporine was spotted directly in the assay plate using acoustic dispensing and complemented with DMSO to result in a similar final concentration as mentioned above.
For the semi-automated assay, the negative control (0% inhibition) was prepared by mixing water (3.8 mL) and DMSO (200 μL) resulting in a final concentration of 1% DMSO after further dilution in the kinase reaction. For the automated assay no pre-dilution of DMSO was done. 100% DMSO was spotted directly on the assay plate.
The assay buffer solution was prepared at a concentration corresponding to 5 fold the final (most diluted) assay concentration by mixing a solution of 125 mM TRIS pH 7.5+0.05% Triton X-100+2.5 mM EGTA (5.27 mL) with 1M mgCl2 (72 μL), 1M DTT (57.6 μL), and 200 mM MnCl2 (360 μL).
For example, for the semi-automated method, the enzyme-substrate mixture was prepared by mixing water (3999 μL), assay buffer solution (1380 μL), 1 mM RIP140 (138 μL—SEQ ID1), and 200 ng/mL IRAK 4 (3.45 μL Carna Biosciences, 09 145).
For semi-automated method, the ATP mixture was prepared at a concentration corresponding to 2.5 fold the final (most diluted) assay concentration of the semi-automated method and 1.5 fold the final (most diluted) assay concentration of the automated method. For example, for the semi-automated method, the ATP mixture was prepared by mixing water (4126 μL), assay buffer solution (1380 μL), and 10 mM ATP (13.80 μL).
The assay are performed either in a semi-automated or fully automated manner. The assay volume and the incubation time of the ADP detection were different accordingly the method used.
The compounds were prepared as a serial dilution of 10 point dose responses with 1/5 dilution steps in 100% DMSO starting from 2 mM highest concentration, diluted 1/20 in water. 1 μL was transferred dry to the assay plates.
On each assay plate 32 wells of each control (positive & negative) were added, followed by 2 μL enzyme-substrate mixture.
The reaction was started by adding 2 μL diluted ATP (final concentration Km ATP) on the assay plates. Plates were centrifuged for a few seconds at 1000 rpm followed by an incubation at r.t. for 120 min.
The reactions were stopped and the unconsumed ATP was depleted by adding 5 μL ADP-glo Reagent (Promega, Cat #V9103) to the reaction. The plates were quickly centrifuged at 1000 rpm and incubated at r.t. for 40 min corresponding to full ATP depletion.
The ADP was converted back to ATP and luciferase and luciferin were introduced to detect ATP by adding 10 μL kinase detection reagent (Promega, Cat #V9103) to the reaction. The plates were centrifuged for a few seconds at 1000 rpm and incubated at r.t. for a further 30 min.
Luminescent read out was performed on an Envision luminescent reader (Perkin Elmer).
For the automated assay, the compounds were prepared as a serial dilution of 10 point dose responses with 1/5 dilution steps in 100% DMSO starting from 2 mM highest concentration. […]

Mouse Hepatocyte = experiment: Metabolic stability in mouse hepatocytes; type: in vitro ADME; conditions: mouse cryopreserved hepatocytes, 1 μM
Experimental: as §1, §2, §3, §4, §5, §6, §7, §8

Row | Human Hepatocyte stability (Perc. remaining at 90 min) (Human Hepatocyte) | IC50 (human IRAK-4) | Mouse Hepatocyte stability (Perc. remaining at 90 min) (Mouse Hepatocyte) | SMILES
1 | 100.05 Perc. | 0.1 to 5 nM | 67.65 Perc. | CNC(=O)c1cc2nc(C3COCCO3)cn2cc1NC(=O)c1cccc(C(C)(F)F)n1 (stereo not drawn) [Compound 14, 6-(6-(1,1-difluoroethyl)picolinamido)-2-(1,4-dioxan-2-yl)-N-methylimidazo[1,2-a]pyridine-7-carboxamide]
2 | 56.6 Perc. | 10 to 50 nM | 76.5 Perc. | O=C(Nc1cn2cc(C3CCOCC3)nc2c(F)c1OCC(F)F)c1cccn(C2CC2)c1=O [Compound 19, 1-cyclopropyl-N-(7-(2,2-difluoroethoxy)-8-fluoro-2-(tetrahydro-2H-pyran-4-yl)imidazo[1,2-a]pyridin-6-yl)-2-oxo-1,2-dihydropyridine-3-carboxamide]
